Several values for one entry are separate records, joined by “and”; a condition that tells them apart may be missing. Equal values may be shown once.
How the values were obtained:
Format in all cases: in vivo, human
[1] = system: diffuse sebaceous gland hyperplasia; experiment: Split-face radiant IR skin preparation prior to PDT, diffuse sebaceous gland hyperplasia (Example 4)
Method: A PDT treatment was performed on the face of a patient suffering from diffuse sebaceous gland hyperplasia. They were complaining of redness exacerbated by exercise/effort. […] Facial lesions were distributed mainly on the forehead and cheeks. […] They applied only topical Metrogel. […] Also, comedones and papulo-pustules were present. The patient was skin phototype II (Fitzpatrick classification). Their parent had similar skin condition.
Prior to PDT, radiant IR skin preparation was performed in only half of face (split face study). Then PDT was completed on the complete facial area. First, the face was washed with a mild soap and an acetone scrub was performed. A 970 nm LED source prototype emitting at 50 mW/cm2 in a CW mode was placed at 1.5 cm from the right side of face and left for 25 min. Right after split face irradiation, 5-aminolevilinic acid (Levulan™ Kerastick™) was applied to the treatment area and left for 90 min. The photosensitizer was then light activated by a 630 nm LED source emitting at 50 mW/cm^2 (LumiPhase-RB, Opusmed, Canada), until erythema was reached (20 min). This treatment was concluded by a 405 nm LED source emitting at 30 mW/cm^2 (LumiPhase-RB, Opusmed, Canada), for 5 min. […] Through a mechanism involving the opening of skin pores, IR radiant skin preparation enhanced drug penetration and absorption by the targeted structures (i.e. sebaceous glands).

[2] = system: cystic acne; experiment: Split face/back pre-PDT radiant IR study, 10 cystic acne patients (Example 8); conditions: for decrease in the number of cystic lesions: one month after PDT
Method: In summary, ten patients were enrolled in a split face or split back (pre-treated side versus control) study with a pre-approved IRB protocol. […] Lesion count was assessed both manually and by digital photography before and 4 weeks after one PDT procedure. Prior to the application of 5-ALA, one side of the face or back was pre-treated with radiant IR [CW LEDs emitting @λ 970 nm, irradiance 50 mW/cm2 for 15 minutes, total fluence 45 J/cm2], while the other half was used as control. PDT was then performed on the entire surface (face or back) using 5-ALA in a conventional manner.
Patients were assigned to a split face or split back group. One side was pre-treated for 15 minutes with radiant IR [CW LEDs emitting @λ 970 nm, irradiance 50 mW/cm^2, total fluence 45 J/cm^2] to obtain a temperature of about 42 Celsius, while the other side was used as control. ALA was then applied after which PDT was performed on the entire face or back surface. Lesion count was assessed manually and by digital photography, before and 4 weeks after the PDT procedure. Exclusion criteria were: current use of the following medications: (Prednisone), anticoagulant therapy, drugs known to cause photo-sensitivity reactions. In addition, during 12 months preceding the study, subjects are required not to take Accutane (isotretinoin); use of corticosteroids on the treated area within 2 weeks of first treatment; use of topical tretinoin (like Retisol-A, Retin-A, Vitamin A acid, Retin-A micro) for at least 1 month prior to enrollment; yanned skin around or on the area to be treated: the back. previous laser of medicated treatment at the treatment site (to be studied) and for the duration of the study; presence of any known diseases among vitiligo, psoriasis, severe eczema, poor skin healing. active infection, immunosuppression, coagulation problem, peripheral arterial disease, hematologic abnormalities, vasculitis, and previous history of epilepsy; pregnancy; alcohol or drug abuse before and during the study.
After the pre-treatment with IR radiation, 5-ALA was applied onto slightly abraded skin and left to incubate for 60 minutes on both IR-pre-treated and control sides. Then, the 5-ALA treated regions were irradiated with a LED source of red light (wavelength of […], in accordance to standard therapy, until a mild to moderate erythema appeared. Immediately afterwards, the 5-ALA treated regions were irradiated with a LED source of blue light (wavelength of 405 nm, power density 30 mW/cm^2) in continuous wave mode for 3 min.

[3] = system: conversion of 5-ALA to protoporphyrin IX (PpIX); experiment: Fluoderm fluorescence after 940 nm photopreparation and 5-ALA, one subject (Example 11)
Method: In order to measure the effect of photopreparation on the skin we used an LED device (Lumiphase 940 nm, CW and Pulsed, irradiance: 70 mW/cm2, OpusMed, Montreal, Canada) prior to the application of a photosensitizer (5-ALA: Levulan, Kerastick, DUSA Pharmaceuticals, USA). We tested both CW and sequential pulsing modes 24 h and 30/15 minutes (total fluence 63 J/cm^2 before the application of 5-ALA for 3 hours). Following an incubation time of 3 hours, we measured the fluorescence induced by the conversion of 5-ALA to protoporphyrin IX (PpIX) with a dedicated device (Fluoderm, Dia-Medico ApS, Danemark). The pulsed radiation, referred to as D50 hereinbelow, consisted in pulse trains of 4 pulses with pulses lasting 500 μs separated with an inter-pulse interval within each train of 150 μs. The pulse trains were separated from each other by 1550 μs. Higher numbers mean higher conversion to PpIX, and thus indicate that the PDT treatment will be more efficient. All parameters were tested on adjacent portion of the subject's skin. The experiment was performed on the back of a person with phototype I.

[4] = system: conversion of 5-ALA to PpIX; experiment: FluoDerm fluorescence after 940 nm irradiation 8-53 h before 5-ALA, two subjects (Example 11); design: unit not given here
Method: In view of these promising results, another study with even longer delays before application of 5-ALA was performed. The back skin of two test subjects was irradiated with continuous wavelength and pulsed infrared light at 940 nm. These irradiations took place 50-53, 24-29, and 8-14 hours prior to the application of the 5-ALA. After a three-hour incubation period with the compound, a FluoDerm™ device was used to measure the fluorescence of the skin ([…]) a direct indication of the activity of 5-ALA. 5-ALA must penetrate the skin and then be converted to PpIX before any fluorescence increase can be observed. […] Conclusion: This preconditioning method uses a temperature-independent mechanism of action via cell signaling pathways as in photobiomodulation.

NCC(=O)CCC(=O)O [5-ALA, 5-aminolevulinic acid]
time clearing was maintained post-treatment ([1]; especially on the radiant IR pre-treated side): up to 6 months | improvement of SH lesions ([1]; other side, no IR preparation, PDT alone, single treatment): 30% | decrease in the number of cystic lesions ([2]; IR pre-treated side (970 nm, 50 mW/cm2, 15 min)): 72.5% | mean+/-standard error number of lesions after treatment ([2]; IR treated site, baseline 49.7+/-13.7): 12.0+/−2.3 | treatment-related adverse effects ([2]; both sides): No treatment-related adverse effects were reported | decrease in the number of cystic lesions ([2]; control side (no IR)): 47.1% | mean+/-standard error number of lesions after treatment ([2]; control side, baseline 35.9+/-8.3): 16.3+/−3 | Fold increase of fluorescence compared to 5-ALA alone ([3]; PP 15 min pre-5-ALA: CW - 15 min): 1.09 fold and 1.03 fold | Fluoderm Measurements, Post 3 hour incubation (5-ALA) ([3]; PP 15 min pre-5-ALA: CW - 15 min, 940 nm, 70 mW/cm2): 51 | Fold increase of fluorescence compared to 5-ALA alone ([3]; PP 30 min pre-5-ALA: D50 - 30 min): 1.19 fold | Fluoderm Measurements, Post 3 hour incubation (5-ALA) ([3]; PP 30 min pre-5-ALA: D50 - 30 min, 940 nm, 70 mW/cm2): 59 | Fold increase of fluorescence compared to 5-ALA alone ([3]; PP 24 h pre-5-ALA: CW - 15 min): 1.13 fold | Fluoderm Measurements, Post 3 hour incubation (5-ALA) ([3]; PP 24 h pre-5-ALA: CW - 15 min, 940 nm, 70 mW/cm2): 56 | Fold increase of fluorescence compared to 5-ALA alone ([3]; PP 24 h pre-5-ALA: D50 - 30 min): 1.45 fold | Fluoderm Measurements, Post 3 hour incubation (5-ALA) ([3]; PP 24 h pre-5-ALA: D50 - 30 min, 940 nm, 70 mW/cm2): 72 | Fold increase of fluorescence compared to 5-ALA alone ([3]; Positive control: 5-ALA alone): 1 fold | Fluoderm Measurements, Post 3 hour incubation (5-ALA) ([3]; Positive control: 5-ALA alone, no photopreparation): 49.5 | Fluoderm Reading ([4]; subject one, 14 hour time points, CW-940, 3 h incubation): 51.0 | Fluoderm Reading ([4]; subject one, 14 hour time points, D50-940, 3 h incubation): 44.5 | Fluoderm Reading ([4]; subject one, 24 hour time points, CW-940, 3 h incubation): 48.0 | Fluoderm Reading ([4]; subject one, 24 hour time points, D50-940, 3 h incubation): 36.5 | Fluoderm Reading ([4]; subject one, 50 hour time points, CW-940, 3 h incubation): 45.0 | Fluoderm Reading ([4]; subject one, 50 hour time points, D50-940, 3 h incubation): 35.0 | Fluoderm Reading ([4]; subject one, Control, Just 5-ALA, no irradiation): 37.0 | Fluoderm Reading ([4]; subject two, 8 hour time points, CW-940, 3 h incubation): 44.0 | Fluoderm Reading ([4]; subject two, 8 hour time points, D50-940, 3 h incubation): 49.0 | Fluoderm Reading ([4]; subject two, 8 hour time points, S50-940, 3 h incubation): 51.0 | Fluoderm Reading ([4]; subject two, 29 hour time points, CW-940, 3 h incubation): 47.0 | Fluoderm Reading ([4]; subject two, 29 hour time points, D50-940, 3 h incubation): 52.0 | Fluoderm Reading ([4]; subject two, 29 hour time points, S50-940, 3 h incubation): 47.5 | Fluoderm Reading ([4]; subject two, 53 hour time points, CW-940, 3 h incubation): 55.0 | Fluoderm Reading ([4]; subject two, 53 hour time points, D50-940, 3 h incubation): 46.5 | Fluoderm Reading ([4]; subject two, 53 hour time points, S50-940, 3 h incubation): 55.0 | Fluoderm Reading ([4]; subject two, Control, Just 5-ALA, no irradiation): 46.0
